Values joined by “and” are separate entries in the source; they are usually repeats but may differ in a detail not shown here. Equal values may be shown once.
Columns and labels:
[1] = system: patients with MDD and an inadequate response to an SSRI or SNRI; assay: Safety and tolerability (adverse events), Study ACP-103-042
[2] = system: patients with MDD and an inadequate response to an SSRI or SNRI; assay: HAMD-17 anxiety/somatization subscale score, MDD study; assay type: in vivo, human; conditions: for HAMD-17 anxiety/somatization subscale score LSM (SE) Change from Baseline to Week 5: 34 mg QD + SSRI/SNRI
Experimental: Key endpoints were change from baseline to the end of each stage for the HAMD-17 total score and SDS score.
(§1) All patients continued on their SSRI or SNRI at a stable dose for the duration of the study.
(§2) Clinic visits occurred weekly from Weeks 1 through 10. The MADRS was administered at screening and baseline. The HAMD-17, SDS, CGI, and KSS were administered at baseline and weekly during the study. Other endpoints such as the SF-12 were administered at baseline and Weeks 5 and 10. Treatment response was defined as a reduction of 50% from baseline for the HAMD-17 total score, and remission was defined as a HAMD-17 total score
A higher HAMD-17 anxiety/somatization subscale score indicates more severe depression with anxiety symptoms.

[3] = system: patients with MDD and an inadequate response to an SSRI or SNRI; assay: Sheehan Disability Score (SDS): score, functional remission, days unproductive, MDD study; assay type: in vivo, human
Source text: The SDS is well validated and widely accepted for assessing functional outcomes in patients with MDD (Weiller et al, Neuropsychiatr Dis Treat. 2017; 14:103-115). […] Routine assessments of both symptoms and function could be helpful for minimizing residual effects that increase the risk for relapse or recurrence (Sheehan et al, J Affect Disord. 2017; 215:299-313).
“Functional remission” as used herein refers to remission in functional impairment. Functional remission is defined as a SDS total score of 6 or less at endpoint. (Sheehan et al. Human Psychopharmacology 2016, 31, 53-63).
as §1, §2
In Stage 1, weeks 1-5 is the study weeks 1-5 and in Stage 2, weeks 1-5 is the study weeks 6-10. 95% CI refers to Newcombe 95% confidence interval. The p-value is from stage-specific Pearson's Chi-square test. Functional remission is defined as SDS total score […].
Higher SDS mean score indicates greater functional impairment. […] In Stage 1, weeks 1-5 is the study weeks 1-5 and in Stage 2, weeks 1-5 is the study weeks 6-10. LSM from the stage-specific MMRM analysis with the change from baseline as the outcome; treatment group, visit, treatment-by-visit interaction, baseline SDS Day Unproductive, and baseline SDS Days Unproductive-by-visit interaction as the factors. 2-sided p-value for treatment difference from the stage-specific MMRM analysis.

[4] = system: adults with Parkinson's disease and depression; assay: CGI-I, open-label study in Parkinson's disease and depression; assay type: in vivo, human; conditions: interim, first 31 patients
Source text: “Clinical Global Impression (CGI)” scale is a clinician-rated, 7-point scale that is designed to rate the severity of the subject's depression at the time of assessment using the Investigator's judgment and past experience with subjects who have the same disorder (i.e., depression with anxious distress). “Clinical Global Impression-Improvement (CGI-I)” is a clinician-rated, 7-point scale that is designed to rate the improvement in the subject's depression at the time of assessment, relative to the symptoms at Baseline. “Clinical Global Impression—Severity (CGI-S)” is an assessment of the current severity of the patient's disease.
Subjects can receive treatment as either monotherapy or adjunctively if inadequately controlled with SSRI/SNRI monotherapy. […] Secondary endpoints include Clinical Global Impression (CGI) scales (improvement and severity), Scale of Outcomes in PD-Sleep (SCOPA), and quality of life as measured by EuroQol-5 dimensions-5 levels (EQ-5D-5L).
At approximately 2, 4, and 6 weeks after start of dosing of study drug subjects returned to the clinic for assessments. Safety measures, HAMD-17, C-SSRS (Columbia Suicide Severity Rating Scale), CGI-S(Clinical Global Impression-Severity), and CGI-I (Clinical Global Impression-Improvement) were evaluated at all visits. […]

dopamine transporter = dopamine transporter (Homo sapiens, UniProt Q01959); assay: Receptor profile: affinity (Ki) at DAT; assay type: binding; conditions: data on file
dopamine transporter, sequence (Q01959 whole entry): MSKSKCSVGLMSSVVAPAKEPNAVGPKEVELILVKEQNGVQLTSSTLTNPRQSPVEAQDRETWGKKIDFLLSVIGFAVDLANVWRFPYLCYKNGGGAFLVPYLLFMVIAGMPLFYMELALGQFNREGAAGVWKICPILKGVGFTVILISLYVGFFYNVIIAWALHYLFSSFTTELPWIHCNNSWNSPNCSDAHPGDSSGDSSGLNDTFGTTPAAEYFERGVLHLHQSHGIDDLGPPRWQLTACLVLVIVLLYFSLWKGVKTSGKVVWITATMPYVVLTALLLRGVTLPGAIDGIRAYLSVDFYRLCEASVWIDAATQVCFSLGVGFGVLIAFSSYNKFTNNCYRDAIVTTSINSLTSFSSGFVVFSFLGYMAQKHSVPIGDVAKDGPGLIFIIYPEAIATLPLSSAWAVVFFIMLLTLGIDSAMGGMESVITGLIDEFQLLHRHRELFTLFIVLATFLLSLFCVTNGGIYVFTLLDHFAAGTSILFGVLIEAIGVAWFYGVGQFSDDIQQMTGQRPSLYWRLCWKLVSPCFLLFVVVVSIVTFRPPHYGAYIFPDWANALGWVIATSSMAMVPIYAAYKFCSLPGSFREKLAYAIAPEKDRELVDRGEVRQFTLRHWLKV

[5] = Stage 1, subgroup baseline subscale score ≥7
[6] = Stage 2, subgroup baseline subscale score ≥7

For `CC(C)COc1ccc(CNC(=O)N(Cc2ccc(F)cc2)C2CCN(C)CC2)cc1` [pimavanserin, N-(4-Fluorophenylmethyl)-N-(1-methylpiperidin-4-yl)-N′-(4-(2-methylpropyloxy)phenylmethyl)carbamide], the “Discontinuations due to adverse events” value ([1]; 34 mg QD + SSRI/SNRI) was 1.2% and 1.9%, the “rates of daytime sleepiness, weight gain, metabolic laboratory tests, and sexual dysfunction” value ([1]; 34 mg QD + SSRI/SNRI) was “low rates” and the tolerability ([1]; 34 mg QD + SSRI/SNRI) was “generally well-tolerated”. For the same compound, the tolerability ([1]; 34 mg QD + SSRI/SNRI, listed as Pimavanserin) was “well tolerated”, the “subjects reporting serious adverse events” value ([1]; deemed not related to study drug) was “One subject” and the “HAMD-17 anxiety/somatization subscale score Diff in LSM (SE) vs placebo” value ([2]; Stage 1) was −1.5 (0.41). The “HAMD-17 anxiety/somatization subscale score Effect Size (Cohen's d)” value ([2]; Stage 1) was 0.634, the “HAMD-17 anxiety/somatization subscale score LSM (SE) Change from Baseline to Week 5” value ([2]; Stage 1) was −3.7 (0.36) and the “HAMD-17 anxiety/somatization subscale score LSM (SE) Change from Baseline to Week 5” value ([2]; Stage 1, subgroup baseline anxiety/somatization subscale score ≥7) was −5.0 (0.56). The “HAMD-17 anxiety/somatization subscale score Diff in LSM (SE) vs placebo” value [2, 5] was −2.2 (0.66), the “HAMD-17 anxiety/somatization subscale score Effect Size (Cohen's d)” value [2, 5] was 0.781 and the “HAMD-17 anxiety/somatization subscale score Diff in LSM (SE) vs placebo” value ([2]; Stage 2) was 0.0 (0.48). For the same compound, the “HAMD-17 anxiety/somatization subscale score Effect Size (Cohen's d)” value ([2]; Stage 2) was −0.007, the “HAMD-17 anxiety/somatization subscale score LSM (SE) Change from Baseline to Week 5” value ([2]; Stage 2) was −0.6 (0.33) and the “HAMD-17 anxiety/somatization subscale score LSM (SE) Change from Baseline to Week 5” value ([2]; Stage 2, subgroup baseline anxiety/somatization subscale score ≥7) was −1.3 (0.44). For the same compound, the “HAMD-17 anxiety/somatization subscale score Diff in LSM (SE) vs placebo” value [2, 6] was 0.1 (0.66), the “HAMD-17 anxiety/somatization subscale score Effect Size (Cohen's d)” value [2, 6] was −0.067 and the “SDS Days Unproductive Effect Size (Cohen's d)” value ([3]; Stage 1) was 0.518. The “SDS Days Unproductive Change from Baseline to Week 5 Mean (SE)” value ([3]; Stage 1, 34 mg QD + SSRI/SNRI) was −2.364 (0.3253), the “SDS Days Unproductive Change from Baseline to Week 5 Median” value ([3]; Stage 1, 34 mg QD + SSRI/SNRI) was −2.000 and the “SDS Days Unproductive Week 5 Mean (SE)” value ([3]; Stage 1, 34 mg QD + SSRI/SNRI) was 0.956 (0.2356). The “SDS Days Unproductive Week 5 Median” value ([3]; Stage 1, 34 mg QD + SSRI/SNRI) was 0.000, the “SDS score LSmean (SE) change from baseline to Week 5” value ([3]; Stage 1, 34 mg QD + SSRI/SNRI) was −3.3 (0.35) and the “SDS score LSmean (SE) change from baseline to Week 5” value ([3]; Stage 1, 34 mg QD + SSRI/SNRI, listed as Pimavanserin) was −3.254. The “SDS effect size (Cohen's d)” value ([3]; Stage 1 Week 5) was 0.498 and ~0.5, the “SDS individual items (work/school, social life, family life/home responsibilities) effect size vs placebo” value ([3]; Stage 1 Week 5) was “a positive effect size was observed for all the 3 individual items” and the “SDS effect size (Cohen's d)” value ([3]; Stage 1 Week 5, listed as Pimavanserin) was 0.498. For the same compound, the “SDS Days Unproductive Effect Size (Cohen's d)” value ([3]; Stage 2) was 0.167, the “SDS effect size (Cohen's d)” value ([3]; Stage 2) was 0.311 and the “SDS Days Unproductive Change from Baseline to Week 5 Mean (SE)” value ([3]; Stage 2, 34 mg QD + SSRI/SNRI) was −0.655 (0.4689). For the same compound, the “SDS Days Unproductive Change from Baseline to Week 5 Median” value ([3]; Stage 2, 34 mg QD + SSRI/SNRI) was −1.000, the “SDS Days Unproductive Week 5 Mean (SE)” value ([3]; Stage 2, 34 mg QD + SSRI/SNRI) was 2.276 (0.4295) and the “SDS Days Unproductive Week 5 Median” value ([3]; Stage 2, 34 mg QD + SSRI/SNRI) was 2.000. The “SDS Score LSM change from baseline to Week 5” value ([3]; Stage 2, 34 mg QD + SSRI/SNRI) was −0.901, the “Functional remission: Remitter (%)” value ([3]; Week 1, Stage 1, 34 mg QD + SSRI/SNRI) was 9 (17.6) % and the “Functional remission: Remitter (%)” value ([3]; Week 1, Stage 2, 34 mg QD + SSRI/SNRI) was 2 (6.9) %. The “Functional remission: Remitter (%)” value ([3]; Week 2, Stage 1, 34 mg QD + SSRI/SNRI) was 21 (41.2) %, the “Functional remission: Remitter (%)” value ([3]; Week 2, Stage 2, 34 mg QD + SSRI/SNRI) was 3 (10.3) % and the “Functional remission: Remitter (%)” value ([3]; Week 3, Stage 1, 34 mg QD + SSRI/SNRI) was 20 (39.2) %. The “Functional remission: Remitter (%)” value ([3]; Week 3, Stage 2, 34 mg QD + SSRI/SNRI) was 3 (10.3) %, the “Functional remission: Remitter (%)” value ([3]; Week 4, Stage 1, 34 mg QD + SSRI/SNRI) was 20 (39.2) % and the “Functional remission: Remitter (%)” value ([3]; Week 4, Stage 2, 34 mg QD + SSRI/SNRI) was 4 (13.8) %. For the same compound, the “Functional remission: Remitter (%)” value ([3]; Week 5, Stage 1, 34 mg QD + SSRI/SNRI) was 22 (43.1) %, the “Functional remission: Remitter (%)” value ([3]; Week 5, Stage 2, 34 mg QD + SSRI/SNRI) was 6 (20.7) % and the “SDS effect size, treatment difference in LSmean change from baseline to Week 10” value ([3]; continuous treatment for 10 weeks in Stages 1 and 2) was 0.469. For the same compound, the “Weighted Treatment Diff in Remission Rate (%)” value ([3]; functional remission, Overall Treatment Comparison at Week 5 (Linear Combination Test)) was 18.6%, the “Diff (PIM 34 mg-Placebo) in Remission Rate (%)” value (from here on “Diff (PIM 34 mg-Placebo) … (%)”) ([3]; functional remission, Week 1, Stage 1) was 5.1% and the “Diff (PIM 34 mg-Placebo) … (%)” value ([3]; functional remission, Week 1, Stage 2) was −3.4%. The “Diff (PIM 34 mg-Placebo) … (%)” value ([3]; functional remission, Week 2, Stage 1) was 27.4%, the “Diff (PIM 34 mg-Placebo) … (%)” value ([3]; functional remission, Week 2, Stage 2) was 0.0% and the “Diff (PIM 34 mg-Placebo) … (%)” value ([3]; functional remission, Week 3, Stage 1) was 24.1%. The “Diff (PIM 34 mg-Placebo) … (%)” value ([3]; functional remission, Week 3, Stage 2) was 0.0%, the “Diff (PIM 34 mg-Placebo) … (%)” value ([3]; functional remission, Week 4, Stage 1) was 19.5% and the “Diff (PIM 34 mg-Placebo) … (%)” value ([3]; functional remission, Week 4, Stage 2) was 6.9%. The “Diff (PIM 34 mg-Placebo) … (%)” value ([3]; functional remission, Week 5, Stage 1) was 23.4%, the “Diff (PIM 34 mg-Placebo) … (%)” value ([3]; functional remission, Week 5, Stage 2) was 13.8% and the “SDS LSmean difference (SE) pimavanserin vs placebo” value ([3]; overall (weighted Stage 1 and Stage 2)) was −0.8 (0.29). The “patients with a CGI-I score of 1 or 2 (very much improved or much improved)” value [4] was 54.8% and the Ki (dopamine transporter) was > 1000 nM.
